Literature values, collected in article PMC4183665 (2014).
“Also recorded” adds a separate entry of the source.

What was measured:
[1] = tested on: dipeptidyl peptidase-4 (DPP-4)

## H-HAEGTFTSDVSSYLEGQAAKEFIAWLVKGRG-NH2
Neprilysin (NEP 24.11)
  cleaved bond: cleaves after Ser18; also recorded: cleaves after Tyr19; also recorded: cleaves after Glu27; also recorded: cleaves after Phe28
[1]
  cleaved bond: cleaves after Ala8
